According to patent US9579406B2, “Phospholipid ether analogs as agents for detecting and locating cancer, and methods thereof” (Cellectar, Inc., priority 2004, dated 2017):
“Also recorded” adds a separate entry of the source.

What was measured:
[1] = test system: SCC1 and SCC6 squamous cell tumors; assay: SCC1 and SCC6 xenografts in nude mice, single injection; type: in vivo
Text: Due to its 60-day physical half-life and low energy 35 KeV photon emission, iodine-125 is suitable for imaging experiments in mice and rats. Iodine-125 also affords therapeutic characteristics. In one imaging experiment (FIG. 6), 2 nude mice were each inoculated with subcutaneous squamous cell lines SCC1 and SCC6 tumor cell implants on opposing flanks. SCC1 and SSC6 cells were used because one is radiosensitive relative to the other. After 14 days when the average tumor size was approaching 0.5 cm in diameter, one of the mice received 20 μCi of I-125-NM-404 and the other one receive unlabeled NM404 in an equal mass dose. The mouse receiving the unlabeled cold compound had to be euthanized 20 days after injection due to both tumors reaching the termination size limit as defined in the animal use protocol. […] This mouse never did reach terminal tumor size and the mouse was actually euthanized after 90 days in order to collect histology sections.

[2] = test system: A549 (human non-small cell lung cancer); assay: Radiotherapy study in A549 SCID mouse xenograft model; type: in vivo
Description: Stimulated by these and other observations, the inventors recently conducted a small ^125I-NM404 pilot therapy study in SCID mice with human A549 lung tumor xenografts. ^125I-NM404 was administered as either a single dose or alternatively in 3 doses (once a week for 3 weeks) to groups of 6 mice and a separate cohort received an equivalent mass dose of unlabeled NM404 for comparison. Single doses were 50 or 500 μCi and the repeat dose group received a total of 3 weekly 50 μCi doses. Tumor growth was monitored for 10 weeks following final injection. […] New arms are now being initiated to cover the dose levels between the current ones in order to more accurately evaluate the therapeutic potential of this agent.
A549 (human non-small cell lung cancer, NSCLC, from ATCC) are maintained in Ham's F-12K media supplemented with 10% fetal bovine serum. […]. Animals are given free access to food and water, tumor growth and animal weight are monitored. […].
The tumor model used for this study was A549, a human non-small cell lung cancer, (NSCLC) obtained from ATCC (Manassas, Va.). The tumor cells are maintained in Ham's F-12K media supplemented with 10% fetal bovine serum. […]. Animals are given free access to food and water. Upon reaching 5-10 mm in tumor diameter, mice will be enrolled in the study.
A single intravenous injection of SF404A was performed at Day 0. For the control group, cold compound (C-NM404) has been injected. For treatment groups I-125-NM404 has been injected.
The study contained 5 groups; 4 treatment groups (n=6/group) and 1 control group (n=9). The iodine doses for the treatment groups were 50, 150, 250 and 500 μCi per mouse. The control group was dosed with an equivalent mass amount of C-NM404 (0 μCi).
Assessments were made until 10 weeks post-injection or until no animal in the control group is alive, whatever comes first. […]

[3] = test system: PC3 human prostate cancer; assay: Radiotherapy study in PC-3 SCID mouse xenograft model; type: in vivo; settings: after treatment
Description: PC-3 (human prostate cancer, from ATCC) are maintained in Ham's F-12K media supplemented with 10% fetal bovine serum. Tumor cell suspension (1×10^6 cells in phosphate-buffered saline) is injected s.c. into the right flank of male SCID mice (6-8 weeks, C.B-17/IcrHsd-Prkcd^scid, Harlan). Animals are given free access to food and water, tumor growth and animal weight are monitored. Upon reaching 4-5 mm in diameter, mice will be divided into groups of 6 for therapy study.
Single injection of SF404A at Day 0
Groups: • (1) 5 study groups: 4 treatment+1 control • (2) N=6 per group • (3) 4 acute dose levels: 50, 150, 250 and 500 μCi per mouse • (4) Control group dosed with equivalent mass amount of NM404: 0 μCi per mouse (“cold” NM404)

[4] = test system: human RL-251 adrenal tumor xenograft; assay: Time course in human RL-251 adrenal cancer xenograft; set-up: species or system SCID mouse; settings: mouse, in vivo
Text: NM404 has now been evaluated in 27 animal tumor models, including several lung, and it is clear that once the agent enters tumor cells, it reaches a metabolic dead end and becomes trapped. […] NM404 is also retained in spontaneous murine lung tumors (FIG. 13). Using ^125I-labeled NM404, the inventors have been able to image mammary and prostate tumors in mice in excess of 60 days. […] Imaging and tissue distribution studies performed in mouse models aimed at determining the uptake characteristics in a wide variety of tumor models are summarized in Table 2.

[5] = test system: xenograft and spontaneous tumor models; assay: Imaging and tissue distribution across preclinical animal tumor models; type: in vivo
[6] = test system: non-small cell lung cancer; assay: Planar gamma-camera scintigraphy with 131I-NM-404 in NSCLC patients; settings: time points examined
Description: The preparation dispensed by the Nuclear Pharmacy will be certified as sterile and pyrogen-free. The subject will be monitored for adverse reactions during and after the infusion. Vital signs will be checked immediately after the infusion, and at 60 minute intervals up to four hours post-injection. They will be observed for adverse events throughout this time. […] Vital signs will be monitored at these times. Any adverse reactions experienced by the subjects will be recorded.

[7] = test system: phospholipase D (PLD); assay: Phospholipase D (PLD) assay; type: biochemical, cabbage; settings: in the presence of ethanol
Description: Finally, several PLE analogs were subjected to a phospholipase D (PLD) assay. The PLD, which was isolated from cabbage, is similar to mammalian PLD in that the cabbage form affords phosphatidylethanol-type products in addition to phosphatidic acid when the enzymatic reaction is performed in the presence of ethanol. Several of the PLE analogs subjected to these assay conditions did give rise to the phosphatidylethanol adduct, indicating possible interaction with PLD. The inventors believes that NM404 is a metabolic substrate to human Phospholipase D, and that the relative absence of Phospholipase D in cancer cell membranes is the underlying mechanism for tumor-selective retention of NM404. Although known from the literature (reference[…]), it is still unclear why cancers lack PLD in their membranes.
As conclusion, the mechanism of selective retention of NM404 may be due to a decrease in the membrane levels of PLD, thus precluding metabolism and clearance of NM404 from the cell. […] This supports the finding of the in vitro cell culture uptake and retention study wherein it was shown that PLE analogs were sequestered by and subsequently metabolized by normal cells (which contained normal levels of PLD). […]

C[N+](C)(C)CCOP(=O)([O-])OCCCCCCCCCCCCCCCCCCc1ccc([125I])cc1 [Compound I-125-NM404]
tumor response ([1]; single injection 20 μCi, listed as 125I-NM404): regressed significantly; also recorded: regressed dramatically; also recorded: significantly reduced | dose relationship of effect on tumor volume ([2]; 50-500 μCi): dose-linear effect | average tumor volume ([2]; 50 μCi (n = 4), week 0): 198 mm^3 | treatment effect on tumor volume ([2]; 50 μCi single injection, 10 weeks): did not show any difference to control animals | average tumor volume ([2]; 50 μCi, week 1): 599 mm^3 | average tumor volume ([2]; 50 μCi, week 2): 691 mm^3 | average tumor volume ([2]; 50 μCi, week 3): 987 mm^3 | average tumor volume ([2]; 50 μCi, week 4): 2283 mm^3 | average tumor volume ([2]; 50 μCi, week 5): 3977 mm^3 | average tumor volume ([2]; 50 μCi, week 6): 4951 mm^3 | average tumor volume ([2]; 50 μCi, week 7): 6999 mm^3 | average tumor volume ([2]; 50 μCi, week 8): 8188 mm^3 | average tumor volume ([2]; 50 μCi, week 9): 9978 mm^3 | average tumor volume ([2]; 50 μCi, week 10): 8342 mm^3 | tumor growth ([2]; 150 microCi, large tumors (>1 cm)): did not show any effects | tumor growth ([2]; 150 microCi, small tumors (<1 cm)): stunned tumor growth | average tumor volume ([2]; 150 μCi (n = 5), week 0): 1699 mm^3 | average tumor volume ([2]; 150 μCi, week 1): 1847 mm^3 | average tumor volume ([2]; 150 μCi, week 2): 2430 mm^3 | average tumor volume ([2]; 150 μCi, week 3): 2758 mm^3 | average tumor volume ([2]; 150 μCi, week 4): 4144 mm^3 | average tumor volume ([2]; 150 μCi, week 5): 4478 mm^3 | average tumor volume ([2]; 150 μCi, week 6): 4668 mm^3 | average tumor volume ([2]; 150 μCi, week 7): 4817 mm^3 | average tumor volume ([2]; 150 μCi, week 8): 6049 mm^3 | average tumor volume ([2]; 150 μCi, week 9): 7780 mm^3 | average tumor volume ([2]; 150 μCi, week 10): 6894 mm^3 | average tumor volume ([2]; 250 μCi (n = 6), week 0): 360 mm^3 | treatment effect on tumor volume ([2]; 250 μCi single injection): substantial and prolonged treatment effect | effect on the tumor ([2]; 250 μCi, 4 weeks following injection): causes central necrosis | average tumor volume ([2]; 250 μCi, week 2): 756 mm^3 | average tumor volume ([2]; 250 μCi, week 3): 821 mm^3 | average tumor volume ([2]; 500 μCi (n = 5), week 0): 1041 mm^3 | signs of toxicity ([2]; 500 μCi dose): none of the mice showed any signs of toxicity | treatment effect on tumor volume ([2]; 500 μCi single injection): substantial and prolonged treatment effect | average tumor volume ([2]; 500 μCi, week 1): 964 mm^3 | average tumor volume ([2]; 500 μCi, week 2): 1281 mm^3 | average tumor volume ([2]; 500 μCi, week 3): 1110 mm^3 | average tumor volume ([2]; 500 μCi, week 4): 1300 mm^3 | average tumor volume ([2]; 500 μCi, week 5): 1626 mm^3 | average tumor volume ([2]; 500 μCi, week 6): 1735 mm^3 | average tumor volume ([2]; 500 μCi, week 7): 1697 mm^3 | tumor growth ([2]; pilot study, single 500 μCi dose): significant regression in tumor growth | time at which treatment and control tumor growth curves separate [3]: 4-5 weeks | tumor retention [4]: retention is evident even after 20 days | time over which tumors could be imaged ([5]; mammary and prostate tumors in mice): > 60 days | period of prolonged tumor retention post-injection ([5]; mice): 20 to 60 days

C[N+](C)(C)CCOP(=O)([O-])OCCCCCCCCCCCCCCCCCCc1ccc(I)cc1 [NM-404, 18-(4-iodophenyl)-octadecylphosphocholine]
urinary bladder radioactivity [6]: lack of urinary bladder radioactivity | time to euthanasia due to both tumors reaching termination size limit ([1]; unlabeled, equal mass dose): 20 days | effect on tumor growth ([2]; 0 μCi, equivalent mass dose, 10 weeks): no substantial effect on tumors growth | therapy effect of fractionated dosing versus single dose ([2]; 3×50 micro-Ci versus single 150 micro-Ci): produced the same therapy effect | average tumor volume ([2]; Control 0 μCi (n = 7), week 0): 1152 mm^3 | average tumor volume ([2]; Control 0 μCi, week 1): 1289 mm^3 | average tumor volume ([2]; Control 0 μCi, week 2): 1667 mm^3 | average tumor volume ([2]; Control 0 μCi, week 3): 2418 mm^3 | average tumor volume ([2]; Control 0 μCi, week 4): 3169 mm^3 | average tumor volume ([2]; Control 0 μCi, week 5): 3763 mm^3 | average tumor volume ([2]; Control 0 μCi, week 6): 4971 mm^3 | average tumor volume ([2]; Control 0 μCi, week 7): 6207 mm^3 | average tumor volume ([2]; Control 0 μCi, week 8): 6253 mm^3 | average tumor volume ([2]; Control 0 μCi, week 9): 7175 mm^3 | average tumor volume ([2]; Control 0 μCi, week 10): 7068 mm^3 | uptake of injected dose into the tumor tissue ([5]; in vivo): 10-25% | localization in infectious / inflammatory sites ([5]; preclinical models): does not localize in infectious sites; also recorded: is not retained in inflammatory tissues | retention in normal, premalignant or hyperplastic tissues ([5]; preclinical models): is not retained in normal, premalignant, or hyperplastic tissues | substrate for PLD [7]: a good substrate for this enzyme
